Measurements from patent publication US20230174584A1, “Antibiotic Compounds” (priority 2019, published 2023).
Values after ≈ are worked out from the molar mass of the structure shown. Read-outs that look alike come from different tables or passages of the source.

What was measured:
[1] = test system: S. aureus 880 (BR-VRSA), NR-49120; assay: MIC assay; format: cell-based, Staphylococcus aureus; conditions: S. aureus 880, NR-49120 VRSA
Experimental: (§1) The antibacterial activity of the compounds was tested against a panel of bacteria, including Gram-positive bacteria (S. aureus ATCC29213, S. aureus USA300, S. aureus LIM-2, NR-45881, S. aureus HIP13419, NR-46413, E. faecium E155, E. faecium E7314, E. faecium E980, E. faecalis E1246, E. faecalis E7406 and S. pneumonia 153). The antibacterial activity of the compounds was further tested against S. aureus NY-155, NR-46236, S. aureus HIP12864, NR-46074, S. aureus 880 (BR-VRSA), NR-49120, E. faecalis E1246, E. faecalis E7604, as well as some Gram-negative bacteria (Escherichia coli and Klebsiella pneumoniae). Minimum inhibitory concentrations (MICs) in μg/mL were performed according to the CLSI guidelines. From glycerol stocks, bacterial strains were cultured on blood agar plates and incubated at 37° C. for 18 h. A single colony was transferred to tryptic soy broth (TSB) with 0.002% polysorbate 80 (p80). For the Enterococcus, VISA and VRSA strains, the cultures were grown at 37° C. until the optical density of the suspension reached a level equivalent to the 0.5 McFarland standard. The bacterial suspensions were diluted in TSB with 0.002% p80 to reach a bacterial cell density of 10^6 CFU/mL. In case of the other (vancomycin-sensitive) S. aureus strains, the direct colony suspension method was used. For these strains, after transfer of the colonies to TSB with 0.002% p80, they were immediately diluted to 10^6 CFU/mL, instead of incubated prior to this dilution. In the case of S. pneumonia, direct colony suspension was used by immediately suspending multiple colonies from fresh blood agar plates in TSB+0.002% p80 to an OD600 of 0.5 and subsequent dilution to 10^6 CFU mL^−1 in TSB+0.002% p80+5% lysed horse blood. Antibiotic dilutions for this strains were also made in TSB+0.002% p80+5% lysed horse blood. Both agar and microplates containing S. pneumonia were incubated at 37° C. with 5% CO2 for 24 h with constant shaking (600 rpm). […] The cultures were grown to exponential phase (OD600=0.5) at 37° C. […] In polypropylene 96-well microtiter plates, test compounds were added in biological triplicates and serial diluted 2-fold by transfer and mixing from one well to the next to achieve a final volume of 50 μL per well. An equal volume of bacterial suspension (10^6 CFU mL^−1) was added to the wells. The plates were sealed with breathable membranes and incubated at 37° C. for 24 h with constant shaking (600 rpm). In polypropylene microtiter plates, 100 μL of the test compounds was added to the first row in biological triplicates, and 50 μL of media was added to the other wells. The compounds were subjected to serial dilution by transfer and mixing of 50 μL from one well to the next. Subsequently, 50 μL of bacterial suspension (10^6 CFU/mL) was added to the wells. The plates were sealed with breathable membranes and incubated at 37° C. for 24 h with constant shaking (600 rpm). Positive growth control consisted of wells with bacterial suspension and without antibiotic. Negative growth control consisted of solely media without bacterial suspension or antibiotic. The MICs were determined from the median of a minimum of triplicates.

S. aureus ATCC29213 = assay: MIC assay; format: cell-based, Staphylococcus aureus
Experimental: as §1

[2] = test system: S. aureus HIP12864, NR-46074; assay: MIC assay; format: cell-based, Staphylococcus aureus; conditions: S. aureus HIP12864, NR-46074 VISA
Experimental: as §1

[3] = test system: S. aureus LIM-2, NR-25881; assay: MIC assay; format: cell-based, Staphylococcus aureus; conditions: S. aureus LIM-2, NR-25881 VISA
Experimental: as §1

[4] = test system: S. aureus NY-155, NR-46236; assay: MIC assay; format: cell-based, Staphylococcus aureus; conditions: S. aureus NY-155, NR-46236 MRSA
Experimental: as §1

[5] = test system: S. aureus HIP13419, NR-46413; assay: microbe, parasite or virus in culture; format: cell-based, Staphylococcus aureus
Experimental: as §1

S. aureus USA300 = assay: microbe, parasite or virus in culture; format: cell-based, Staphylococcus aureus
Experimental: as §1

E. faecium E980 = assay: MIC assay; format: cell-based, Enterococcus faecium
Experimental: as §1

E. faecium E155 = assay: microbe, parasite or virus in culture; format: cell-based, Enterococcus faecium
Experimental: as §1

E. faecium E7314 = assay: microbe, parasite or virus in culture; format: cell-based, Enterococcus faecium
Experimental: as §1

E. faecalis E1246 = assay: MIC assay; format: cell-based, Enterococcus faecalis
Experimental: as §1

E. faecalis E7406 = assay: microbe, parasite or virus in culture; format: cell-based, Enterococcus faecalis
Experimental: as §1

E. faecalis E7604 = assay: microbe, parasite or virus in culture; format: cell-based, Enterococcus faecalis
Experimental: as §1

S. pneumoniae 153 = assay: MIC assay; format: cell-based; conditions: S. pneumoniae 153, TSB+0.002% p80+5% lysed horse blood
Experimental: as §1

MRSA USA300 = assay: MIC assay in the presence of sheep serum; format: cell-based, Staphylococcus aureus; conditions: MRSA USA300, TSB + 0.002% p80 + 50% sheep serum
Experimental: as §1
The activity of the compounds was further assessed against MRSA USA300 strain in the presence of sheep) serum in another MIC assay. The cultures that grew in the presence of serum used TSB+0.002% P80+50% sheep serum as growth media, as opposed to normal MICs done in only TSB+0.002% P80.

[6] = S. aureus HIP13419, NR-46413 VRSA
[7] = E. faecalis E1246 VRE (VanA), Table 7
[8] = E. faecalis E1246 VRE (vanA), Table 9
[9] = Staphylococcus aureus, read-out: MIC

Compound	MIC [1]	MIC (S. aureus ATCC29213; S. aureus ATCC29213 MSSA)	MIC [2]	MIC [3]	MIC [4]	MIC [5, 6]	MIC (S. aureus USA300; MRSA USA300, TSB + 0.002% p80)	MIC (S. aureus USA300; S. aureus USA300 MRSA)	MIC (E. faecium E980; E. faecium E980 VSE)	MIC (E. faecium E155; E. faecium E155 VRE (VanA))	MIC (E. faecium E7314; E. faecium E7314 VRE (VanB))	MIC (E. faecalis E1246; [7])	MIC (E. faecalis E1246; [8])	MIC (E. faecalis E7406; E. faecalis E7406 VRE (VanB))	MIC (E. faecalis E7604; E. faecalis E7604 VRE (vanB))	MIC (S. pneumoniae 153)	MIC (MRSA USA300)	other results
CN[C@H](CC(C)C)C(=O)N[C@H]1C(=O)N[C@@H](CC(N)=O)C(=O)N[C@H]2C(=O)N[C@H]3C(=O)N[C@H](C(=O)N[C@H](C(=O)O)c4cc(O)cc(O)c4-c4cc3ccc4O)[C@H](O)c3ccc(c(Cl)c3)Oc3cc2cc(c3O[C@@H]2O[C@H](CO)[C@@H](O)[C@H](O)[C@H]2O[C@H]2C[C@](C)(NCc3ccc(N=C(N)NC45CC6CC(CC(C6)C4)C5)cc3)[C@H](O)[C@H](C)O2)Oc2ccc(cc2Cl)[C@H]1O [Compound 17]	8 µg/mL (≈ 4.62 µM)	0.016 µg/mL (≈ 0.00924 µM)	≤0.016 µg/mL	0.125 µg/mL (≈ 0.0722 µM)	0.031 µg/mL (≈ 0.0179 µM)	8 µg/mL (≈ 4.62 µM)	0.031 µg/mL	0.031 µg/mL (≈ 0.0179 µM)	≤0.008 µg/mL	8 µg/mL (≈ 4.62 µM)	0.016 µg/mL (≈ 0.00924 µM)	16 µg/mL (≈ 9.24 µM)	16 µg/mL (≈ 9.24 µM)	0.125 µg/mL (≈ 0.0722 µM)	0.125 µg/mL (≈ 0.0722 µM)	0.016 µg/mL (≈ 0.00924 µM)	0.125 µg/mL	
CN[C@H](CC(C)C)C(=O)N[C@H]1C(=O)N[C@@H](CC(N)=O)C(=O)N[C@H]2C(=O)N[C@H]3C(=O)N[C@H](C(=O)N[C@H](C(=O)O)c4cc(O)cc(O)c4-c4cc3ccc4O)[C@H](O)c3ccc(c(Cl)c3)Oc3cc2cc(c3O[C@@H]2O[C@H](CO)[C@@H](O)[C@H](O)[C@H]2O[C@H]2C[C@](C)(NCc3ccc(N=C(N)NCC45CC6CC(CC(C6)C4)C5)cc3)[C@H](O)[C@H](C)O2)Oc2ccc(cc2Cl)[C@H]1O [Compound 18]	2 µg/mL (≈ 1.15 µM)	≤0.008 µg/mL	≤0.016 µg/mL	0.016 µg/mL (≈ 0.00917 µM)	≤0.008 µg/mL	2 µg/mL (≈ 1.15 µM)	≤0.008 µg/mL	≤0.008 µg/mL	≤0.008 µg/mL	2 µg/mL (≈ 1.15 µM)	≤0.008 µg/mL	16 µg/mL (≈ 9.17 µM)	16 µg/mL (≈ 9.17 µM)	≤0.008 µg/mL	≤0.008 µg/mL	≤0.008 µg/mL	0.031 µg/mL	
CN[C@H]1C(=O)N[C@@H]2Cc3ccc(cc3)Oc3cc4cc(c3O[C@@H]3O[C@H](C(=O)O)[C@@H](O)[C@H](O)[C@H]3NC(=O)CCCCCCCCC(C)C)Oc3ccc(cc3Cl)[C@@H](O)[C@@H]3NC(=O)[C@H](NC(=O)[C@@H]4NC(=O)[C@@H](NC2=O)c2cc(cc(O)c2Cl)Oc2cc1ccc2O)c1ccc(O)c(c1)-c1c(O[C@H]2O[C@H](CO)[C@@H](O)[C@H](O)[C@@H]2O)cc(O)cc1[C@@H](C(=O)NCCCN(C)C)NC3=O [Dalbavancin, reference compound]													>128 µg/mL					MIC [1, 9]: 2 µg/mL (≈ 1.1 µM); MIC (S. aureus ATCC29213; Staphylococcus aureus, ATCC 29213 / MSSA): 0.25 µg/mL (≈ 0.138 µM); MIC [2, 9]: 0.5 µg/mL (≈ 0.275 µM); MIC [3, 9]: 1 µg/mL (≈ 0.55 µM); MIC [4, 9]: ≤ 0.008 µg/mL; MIC ([5]; Staphylococcus aureus, VRSA): 16 µg/mL (≈ 8.81 µM); MIC (S. aureus USA300; Staphylococcus aureus, MRSA / USA300): 0.25 µg/mL (≈ 0.138 µM); MIC (E. faecium E980; Enterococcus faecium, E980): 0.0625 µg/mL (≈ 0.0344 µM); MIC (E. faecium E155; Enterococcus faecium, VRE): 128 µg/mL (≈ 70.5 µM); MIC (E. faecium E7314; Enterococcus faecium, VRE): 0.0156 µg/mL (≈ 0.0086 µM); MIC (E. faecalis E1246; Enterococcus faecalis, E. faecalis E1246 VRE (VanA), Table 7, read-out: MIC): > 128 µg/mL; MIC (E. faecalis E7406; Enterococcus faecalis, VRE): 0.0312 µg/mL (≈ 0.0172 µM); MIC (E. faecalis E7604; Enterococcus faecalis, VRE): 0.031 µg/mL (≈ 0.0171 µM); MIC (S. pneumoniae 153; Streptococcus pneumoniae, read-out: MIC): ≤ 0.008 µg/mL; MIC (MRSA USA300; Staphylococcus aureus, 24 h, read-out: MIC): 2 µg/mL
